Laboratory results published in US20230172928A1 (priority 2020, published 2023).
Values joined by “and” are separate entries in the source; they are usually repeats but may differ in a detail not shown here. Equal values may be shown once. Read-outs that look alike come from different tables or passages of the source.

Experiments:
[1] = test system: EGFR L858R model 29665HXXTM; details: osimertinib 10 mpk daily, TNO155 10 mpk BID
[2] = test system: EGFR L858R model 29667HXXTM; details: osimertinib 10 mpk daily, TNO155 10 mpk BID
[3] = test system: EGFR L858R model 29666HXXTM; details: osimertinib 10 mpk daily, TNO155 10 mpk BID
[4] = Tagrisso prescribing information; cited from earlier work
HCC827 cells = test: Cell proliferation / combination dose matrix assay (CellTiter-Glo); assay type: cell-based; details: Homo sapiens, HCC827, HCC827, EGFR ex19del
Excerpt: Human cancer cell lines originated from the CCLE (Cancer Cell Line Encyclopedia) authenticated by single-nucleotide polymorphism analysis and tested for mycoplasma infection using a PCR-based detection technology (IDEXX BioAnalytics) when CCLE was established in 2012. All cell lines used were directly thawed from the CCLE collection stock. […] Cell lines were used within 15 passages of thawing and continuously cultured for less than 6 months.

[5] = Adverse events of decreased left ventricular ejection fraction; design: species or system human; details: in vivo
Excerpt: Patients with EGFR-mutant NSCLC have a high disease control rate with EGFR inhibitors (e.g., erlotinib, gefitinib, osimertinib), but resistance invariably develops. Resistance mechanisms are heterogeneous, but commonly result in restoration of mutant EGFR signaling and/or amplification or overexpression of RTKs other than EGFR (such as MET) or of their ligands.

NCI-H1650 cells = test: Cell proliferation / combination dose matrix assay (CellTiter-Glo); assay type: cell-based; details: Homo sapiens; NCI-H1650, EGFR ex19del
Method: (§1) Human cancer cell lines originated from the CCLE (Cancer Cell Line Encyclopedia) authenticated by single-nucleotide polymorphism analysis and tested for mycoplasma infection using a PCR-based detection technology (IDEXX BioAnalytics) when CCLE was established in 2012. All cell lines used were directly thawed from the CCLE collection stock. All cell lines were cultured in RPMI Medium (ThermoFisher Scientific) except HT-29 (McCoy's 5A), RKO (MEMα), MDST8 (DMEM), A-427 (MEMα) and MIA PaCA-2 (DMEM), supplemented with 10% FBS (VWR). Cell lines were used within 15 passages of thawing and continuously cultured for less than 6 months.
(§2) For combination dose matrix assay, 2000 to 3000 cells were seeded in 96-well plates in 80 μL media per well. On the second day, serial dilutions of the two combination agents were subsequently added, each in 20 μL media at 6× of final indicated concentrations. 3 days later, cell viability was measured by the CellTiter-Glo Assay (Promega #G7573). The mean and standard deviation (n=3) of percentages of inhibition (relative to the DMSO-treated control) of compound-treated cells and synergy scores between the two compounds were determined. Synergy scores greater than 2 are considered to have synergistic rather than additive effects.
(§3) Statistical analyses were performed and curve fit and IC50 values were generated using GraphPad Prism 8 software. Statistical significance was determined using unpaired, paired student t test, or Mann-Whitney test. Significance was set at p=0.05.

HCC2279 cells = test: as above; assay type: cell-based; details: Homo sapiens; HCC2279, EGFR ex19del
Method: as §1, §2, §3

NCI-H3255 cells = test: as above; assay type: cell-based; details: Homo sapiens, NCI-H3255, NCI-H3255, EGFR L858R
Method: as §1, §2, §3

HCC4006 cells = test: as above; assay type: cell-based; details: Homo sapiens; HCC4006, EGFR ex19del
Method: as §1, §2, §3

PC9 cells = test: as above; assay type: cell-based, human
Method: as §1, §2, §3

[6] = test system: patients with EGFRmutated NSCLC; test: First-in-human study of nazartinib (CEGF816X2101); assay type: in vivo; details: 75 mg to 350 mg QD
Method: Nazartinib has been studied in 7 clinical trials.
(§4) The starting dose of nazartinib in this study is 150 mg QD, dosed continuously. In CEGF816X2101, the first-in-human study of nazartinib, doses of nazartinib from 75 mg daily to 350 mg daily were investigated. […] Thus the starting dose of 20 mg QD, 2 weeks on/1 week off provides an adequate tolerability margin for combination with nazartinib 150 mg QD.

CYP3A4 = CYP3A4 (Homo sapiens, UniProt P08684); test: CYP3A4 interaction / metabolism
PC14 cells [7] = test: Immunoblot of PC14 cell lysates (p-ERK, c-PARP, BIM); assay type: cell-based, human; details: nazartinib 0.1 or 0.3 μM, 3 μM TNO155 or combination, 4 h or 24 h
Method: For immunoblotting: Cells (200,000 to 750,000) in 2 mL growth media were seeded in 6-well plates (Corning, #3506). After 24 hours, cells were treated with compounds or growth factors at the indicated concentrations and duration. Cells were lysed on ice in RIPA buffer (Boston Bioproduct #BP-115) supplemented with 1 mM EDTA and Halt Protease and Phosphatase Inhibitor Cocktail (Thermo Fisher Scientific #1861281). Lysates were centrifuged at 14,000 rpm at 4° C. for 15 minutes and protein concentrations were determined using BCA protein assay (Thermo Fisher Scientific). […] The bound primary antibodies were visualized using Goat anti-rabbit IgG secondary antibody conjugated with Alexa Fluor 700 and goat anti-mouse IgG secondary antibody conjugated with IRDye 800 CW and scanning with an Odyssey Infrared Imager System (Li-Cor). […]

PC14 cells [8] = test: Cell proliferation / combination dose matrix assay (CellTiter-Glo); assay type: cell-based, human; details: for IC50: Homo sapiens, PC-14, PC14, EGFR ex19del
Method: (§5) Human cancer cell lines originated from the CCLE (Cancer Cell Line Encyclopedia) authenticated by single-nucleotide polymorphism analysis and tested for mycoplasma infection using a PCR-based detection technology (IDEXX BioAnalytics) when CCLE was established in 2012. All cell lines used were directly thawed from the CCLE collection stock. All cell lines were cultured in RPMI Medium (ThermoFisher Scientific) except HT-29 (McCoy's 5A), RKO (MEMα), MDST8 (DMEM), A-427 (MEMα) and MIA PaCA-2 (DMEM), supplemented with 10% FBS (VWR). Cell lines were used within 15 passages of thawing and continuously cultured for less than 6 months. For combination dose matrix assay, 2000 to 3000 cells were seeded in 96-well plates in 80 μL media per well. On the second day, serial dilutions of the two combination agents were subsequently added, each in 20 μL media at 6× of final indicated concentrations. 3 days later, cell viability was measured by the CellTiter-Glo Assay (Promega #G7573). The mean and standard deviation (n=3) of percentages of inhibition (relative to the DMSO-treated control) of compound-treated cells and synergy scores between the two compounds were determined. […] Statistical analyses were performed and curve fit and IC50 values were generated using GraphPad Prism 8 software. Statistical significance was determined using unpaired, paired student t test, or Mann-Whitney test. Significance was set at p=0.05. […] After 3 days (PC14) or 6 days (NCI-H1975), cell proliferation was measured using the Cell Titer-Glo® assay and luminescent signals of each dose combination were normalized to that of the DMSO (vehicle control) group.

NCI-H1975 cells = test: as above; assay type: cell-based, human; details: for IC50: Homo sapiens, NCI-H1975, EGFR L858R/T790M
Method: as §5

[9] = mice
[10] = test system: DETROIT-562 (pharyngeal squamous cell carcinoma) cells; test: in vitro antiproliferation; assay type: cell-based; details: Homo sapiens
[11] = test system: pERK in DETROIT-562 (pharyngeal squamous cell carcinoma) cells; test: in vitro pERK inhibition; assay type: cell-based; details: Homo sapiens
[12] = test system: KYSE-520 (esophageal squamous cell carcinoma) cells; test: in vitro antiproliferation; assay type: cell-based; details: Homo sapiens
[13] = test system: pERK in KYSE-520 (esophageal squamous cell carcinoma) cells; test: in vitro pERK inhibition; assay type: cell-based; details: Homo sapiens
[14] = TNO155 regimens tested in patients; assay type: in vivo, human; details: 60 mg QD 2 weeks on/1 week off and 40 mg QD 3 weeks on/1 week off
Method: as §4

[15] = test system: EGFR-dependent DETROIT-562 cancer cell line; test: In vivo SHP2 inhibition and efficacy, DETROIT-562 model; details: orally-administered, 20 mg/kg
[16] = Homo sapiens, PC-9, PC9, EGFR ex19del

Sequence of CYP3A4 (P08684 whole entry): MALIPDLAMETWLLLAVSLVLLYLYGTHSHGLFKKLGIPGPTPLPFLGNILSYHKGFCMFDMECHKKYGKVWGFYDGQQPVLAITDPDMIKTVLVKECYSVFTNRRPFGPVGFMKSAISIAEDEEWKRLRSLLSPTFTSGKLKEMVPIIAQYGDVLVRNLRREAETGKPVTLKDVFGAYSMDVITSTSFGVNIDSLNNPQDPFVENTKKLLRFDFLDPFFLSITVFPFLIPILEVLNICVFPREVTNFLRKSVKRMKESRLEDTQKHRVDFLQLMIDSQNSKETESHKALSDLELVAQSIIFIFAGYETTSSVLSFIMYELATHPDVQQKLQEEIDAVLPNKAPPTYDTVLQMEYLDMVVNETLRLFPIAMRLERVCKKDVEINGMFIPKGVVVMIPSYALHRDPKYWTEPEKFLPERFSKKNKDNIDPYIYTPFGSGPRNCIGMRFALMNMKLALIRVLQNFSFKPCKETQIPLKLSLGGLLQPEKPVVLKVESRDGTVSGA

SMILES | anti-tumor activity (tumor volume) [1] | anti-tumor activity (tumor volume) [2] | anti-tumor activity (tumor volume) [3] | IC50 (NCI-H1650 cells) [nM] | IC50 (HCC2279 cells) [nM] | IC50 (HCC4006 cells) [nM] | IC50 (PC9 cells; [16]) [nM] | p-ERK levels (PC14 cells [7]) | IC50 (PC14 cells [8]) [nM] | IC50 (NCI-H1975 cells) [nM] | further results
C=CC(=O)Nc1cc(Nc2nccc(-c3cn(C)c4ccccc34)n2)c(OC)cc1N(C)CCN(C)C [osimertinib, reference compound] | strong | modest | only transient efficacy |  |  |  |  |  |  |  | adverse events of decreased left ventricular ejection fraction [4]: Such events have been described
Cc1cc(C(=O)Nc2nc3cccc(Cl)c3n2[C@@H]2CCCCN(C(=O)/C=C/CN(C)C)C2)ccn1 [Nazartinib, (R,E)-N-(7-chloro-1-(1-(4-(dimethylamino)but-2-enoyl)azepan-3-yl)-1H-benzo[d]imidazol-2-yl)-2-methylisonicotinamide] |  |  |  | > 3000 | > 3000 | 60 | 10 | rebound of p-ERK levels was observed after 24 h | 50 | 170 | IC50 (HCC827 cells): 40 nM; adverse events of decreased left ventricular ejection fraction [5]: not associated with adverse events of decreased left ventricular ejection fraction; IC50 (NCI-H3255 cells): 10 nM; anti-tumor efficacy [6]: anti-tumor efficacy was observed at all doses; maximum tolerated dose [6]: not established; metabolism (CYP3A4): primarily metabolized by CYP3A4
C[C@@H]1OCC2(CCN(c3cnc(Sc4ccnc(N)c4Cl)c(N)n3)CC2)[C@@H]1N [TNO155, (3S,4S)-8-(6-amino-5-((2-amino-3-chloropyridin-4-yl)thio)pyrazin-2-yl)-3-methyl-2-oxa-8-azaspiro[4.5]decan-4-amine] | minimal activity | minimal activity | effectively slowed down the tumor growth | > 10000 | > 10000 | > 10000 | < 1500 | effectively reduced p-ERK levels at 4 h but also suffered a rebound at 24 h | 5010 | > 10000 | half-life [9]: short half-life; maximum tolerated dose ([9]; twice a day (BID)): 20 mg per kilogram body weight (mpk); IC50 [10]: 470 nM; IC50 (PC9 cells; PC9, EGFR ex19del): 1460 nM; IC50 [11]: 35 nM; IC50 [12]: 100 nM; IC50 [13]: 8 nM and 0.0034 µg/mL; CYP3A4 induction / inhibition (CYP3A4; human): neither an inducer nor inhibitor of CYP3A4; tolerability [14]: tolerated; single agent activity (PC14 cells [8]; PC14, low concentrations, e.g. 0.124 μM): lacks single agent activity; single agent activity (NCI-H1975 cells; NCI-H1975, low concentrations, e.g. 0.124 μM): lacks single agent activity; decrease in DUSP6 mRNA transcript [15]: approximately 95%; regression ([15]; twice-daily schedule): 47%
